Assay results taken from PubChem BioAssay (NCI).
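These data come from cells grown in 96-well plates and exposed to compound for 48 hours at five concentrations. TGI: total growth inhibition.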

Experiments:
Test in all cases: NCI tumour cell line growth inhibition, 48 h
MALME-3M melanoma = system: MALME-3M melanoma
SNB-75 CNS = system: SNB-75 CNS
TK-10 renal = system: TK-10 renal
UO-31 renal = system: UO-31 renal
SF-295 CNS = system: SF-295 CNS
CCRF-CEM leukemia = system: CCRF-CEM leukemia
SK-OV-3 ovarian = system: SK-OV-3 ovarian
NCI-H23 lung = system: NCI-H23 lung
MDA-MB-231 breast = system: MDA-MB-231 breast
SK-MEL-2 melanoma = system: SK-MEL-2 melanoma
UACC-62 melanoma = system: UACC-62 melanoma
SW-620 colon = system: SW-620 colon
OVCAR-3 ovarian = system: OVCAR-3 ovarian
HOP-92 NSCLC = system: HOP-92 NSCLC
M14 melanoma = system: M14 melanoma
PC-3 prostate = system: PC-3 prostate
SK-MEL-28 melanoma = system: SK-MEL-28 melanoma
LOX IMVI melanoma = system: LOX IMVI melanoma
RPMI-8226 leukemia = system: RPMI-8226 leukemia
IGROV1 ovarian = system: IGROV1 ovarian
HCT-15 colon = system: HCT-15 colon
SR leukemia = system: SR leukemia
OVCAR-4 ovarian = system: OVCAR-4 ovarian
SNB-19 CNS = system: SNB-19 CNS
A549 NSCLC = system: A549 NSCLC
ACHN renal = system: ACHN renal
MOLT-4 leukemia = system: MOLT-4 leukemia
CAKI-1 renal = system: CAKI-1 renal
NCI-H522 lung = system: NCI-H522 lung
U251 CNS = system: U251 CNS
HS 578T breast = system: HS 578T breast
OVCAR-5 ovarian = system: OVCAR-5 ovarian
MDA-N = system: MDA-N
NCI/ADR-RES ovarian = system: NCI/ADR-RES ovarian
SN12C renal = system: SN12C renal
UACC-257 melanoma = system: UACC-257 melanoma
OVCAR-8 ovarian = system: OVCAR-8 ovarian
KM12 colon = system: KM12 colon
K-562 leukemia = system: K-562 leukemia
RXF 393 renal = system: RXF 393 renal
T-47D breast = system: T-47D breast
BT-549 breast = system: BT-549 breast
HCT-116 colon = system: HCT-116 colon
A498 renal = system: A498 renal
MDA-MB-435 = system: MDA-MB-435
HT29 colon = system: HT29 colon
SF-268 CNS = system: SF-268 CNS
DU-145 prostate = system: DU-145 prostate
COLO 205 colon = system: COLO 205 colon
EKVX NSCLC = system: EKVX NSCLC
SK-MEL-5 melanoma = system: SK-MEL-5 melanoma
HOP-62 NSCLC = system: HOP-62 NSCLC
NCI-H226 lung = system: NCI-H226 lung
786-0 renal = system: 786-0 renal
MCF7 breast = system: MCF7 breast
HL-60(TB) leukemia = system: HL-60(TB) leukemia
SF-539 CNS = system: SF-539 CNS

O=[N+]([O-])c1ccc(N=Nc2c(O)ccc3cc(S(=O)(=O)O)cc(S(=O)(=O)O)c23)cc1
TGI (MALME-3M melanoma): > 100 µM | TGI (SNB-75 CNS): > 100 µM | TGI (TK-10 renal): > 100 µM | TGI (UO-31 renal): > 100 µM | TGI (SF-295 CNS): > 100 µM | TGI (CCRF-CEM leukemia): > 100 µM | TGI (SK-OV-3 ovarian): > 100 µM | TGI (NCI-H23 lung): > 100 µM | TGI (MDA-MB-231 breast): > 100 µM | TGI (SK-MEL-2 melanoma): > 100 µM | TGI (UACC-62 melanoma): > 100 µM | TGI (SW-620 colon): > 100 µM | TGI (OVCAR-3 ovarian): > 100 µM | TGI (HOP-92 NSCLC): > 100 µM | TGI (M14 melanoma): > 100 µM | TGI (PC-3 prostate): > 100 µM | TGI (SK-MEL-28 melanoma): > 100 µM | TGI (LOX IMVI melanoma): > 100 µM | TGI (RPMI-8226 leukemia): > 100 µM | TGI (IGROV1 ovarian): > 100 µM | TGI (HCT-15 colon): > 100 µM | TGI (SR leukemia): > 100 µM | TGI (OVCAR-4 ovarian): > 100 µM | TGI (SNB-19 CNS): > 100 µM | TGI (A549 NSCLC): > 100 µM | TGI (ACHN renal): > 100 µM | TGI (MOLT-4 leukemia): > 100 µM | TGI (CAKI-1 renal): > 100 µM | TGI (NCI-H522 lung): > 100 µM | TGI (U251 CNS): > 100 µM | TGI (HS 578T breast): > 100 µM | TGI (OVCAR-5 ovarian): > 100 µM | TGI (MDA-N): > 100 µM | TGI (NCI/ADR-RES ovarian): > 100 µM | TGI (SN12C renal): > 100 µM | TGI (UACC-257 melanoma): > 100 µM | TGI (OVCAR-8 ovarian): > 100 µM | TGI (KM12 colon): > 100 µM | TGI (K-562 leukemia): > 100 µM | TGI (RXF 393 renal): > 100 µM | TGI (T-47D breast): > 100 µM | TGI (BT-549 breast): > 100 µM | TGI (HCT-116 colon): > 100 µM | TGI (A498 renal): > 100 µM | TGI (MDA-MB-435): > 100 µM | TGI (HT29 colon): > 100 µM | TGI (SF-268 CNS): > 100 µM | TGI (DU-145 prostate): > 100 µM | TGI (COLO 205 colon): > 100 µM | TGI (EKVX NSCLC): > 100 µM | TGI (SK-MEL-5 melanoma): > 100 µM | TGI (HOP-62 NSCLC): > 100 µM | TGI (NCI-H226 lung): > 100 µM | TGI (786-0 renal): > 100 µM

COc1cc(/C=N/NC(=O)c2ccc(NC(C)=O)cc2OC)ccc1O
TGI (MALME-3M melanoma): > 100 µM | TGI (MCF7 breast): > 100 µM | TGI (SNB-75 CNS): 73 µM | TGI (UO-31 renal): > 100 µM | TGI (SF-295 CNS): > 100 µM | TGI (CCRF-CEM leukemia): > 100 µM | TGI (SK-OV-3 ovarian): > 100 µM | TGI (NCI-H23 lung): > 100 µM | TGI (SK-MEL-2 melanoma): 93.3 µM | TGI (UACC-62 melanoma): > 100 µM | TGI (SW-620 colon): > 100 µM | TGI (OVCAR-3 ovarian): > 100 µM | TGI (HOP-92 NSCLC): 54.3 µM | TGI (M14 melanoma): > 100 µM | TGI (PC-3 prostate): > 100 µM | TGI (SK-MEL-28 melanoma): > 100 µM | TGI (LOX IMVI melanoma): > 100 µM | TGI (RPMI-8226 leukemia): > 100 µM | TGI (IGROV1 ovarian): > 100 µM | TGI (HCT-15 colon): > 100 µM | TGI (SR leukemia): > 100 µM | TGI (OVCAR-4 ovarian): > 100 µM | TGI (SNB-19 CNS): > 100 µM | TGI (A549 NSCLC): > 100 µM | TGI (ACHN renal): > 100 µM | TGI (MOLT-4 leukemia): > 100 µM | TGI (CAKI-1 renal): > 100 µM | TGI (HL-60(TB) leukemia): > 100 µM | TGI (NCI-H522 lung): > 100 µM | TGI (HS 578T breast): 81.6 µM | TGI (OVCAR-5 ovarian): > 100 µM | TGI (MDA-N): > 100 µM | TGI (NCI/ADR-RES ovarian): > 100 µM | TGI (SN12C renal): > 100 µM | TGI (OVCAR-8 ovarian): > 100 µM | TGI (KM12 colon): > 100 µM | TGI (K-562 leukemia): > 100 µM | TGI (RXF 393 renal): > 100 µM | TGI (T-47D breast): > 100 µM | TGI (BT-549 breast): > 100 µM | TGI (HCT-116 colon): > 100 µM | TGI (A498 renal): > 100 µM | TGI (MDA-MB-435): > 100 µM | TGI (HT29 colon): > 100 µM | TGI (SF-268 CNS): > 100 µM | TGI (DU-145 prostate): > 100 µM | TGI (SF-539 CNS): > 100 µM | TGI (COLO 205 colon): > 100 µM | TGI (EKVX NSCLC): > 100 µM | TGI (SK-MEL-5 melanoma): > 100 µM | TGI (NCI-H226 lung): > 100 µM | TGI (786-0 renal): > 100 µM
